Measurements taken from patent US20220047569A1, “METHOD AND COMPOUND FOR USE, IN TREATING AND/OR PREVENTING NETOSIS” (Jubilant EpiPad LLC, priority 2020, published 2022).

System: Bleomycin (BLM)-induced mice fibrosis
Test: Bleomycin induced lung fibrosis model
Format: in vivo, C57BL/6 male mice
Details: 50 mg/kg, PO, BID
Source text: Bleomycin (BLM)-induced mice fibrosis is a well-established animal model used to study pathogenesis of lung fibrosis and to estimate the potential anti-fibrotic agents. C57BL/6 male mice at 6-8 weeks of age were purchased from vivo biotech India (under the license from Taconic). The procedures involving the care and use of animals in the study was reviewed and approved by the Institutional Animal Care and Use Committee (IAEC/JDC/2018-161R) prior to conduct. During the study, the care and use of animals was in accordance with the principles outlined in the Guide for the Care and Use of Laboratory Animals, 8th Edition, 2010 (National Research Council) and every effort was made to minimize suffering. The animals were acclimatized for 7 days prior to experimental use. Mice were caged with free access to food and fresh water in a temperature-controlled room (22° C.-24° C.) on a 12 h light/dark cycle. Pulmonary fibrosis was induced by invasive method in animals using single intra-tracheal administration of 50 μg bleomycin prepared in 50 μL of saline under isoflurane anaesthesia. […] Animals were monitored and evaluated for their body weight loss. […] Fibronectin was measured as a PD biomarker by RT-qPCR and fold change in mRNA level was calculated after normalizing to GAPDH. […] The Modified Ashcroft Index score was determined for the vehicle-treated control mice and the test compound treated mice.

## N[C@@H]1CCCN(C(=O)c2cc3c4c(c2)nc(-c2cc5cccc(Cl)c5n2CC2CC2)n4CCO3)C1 [Compound 143, (R)-(3-aminopiperidin-1-yl)(2-(7-chloro-1-(cyclopropylmethyl)-1H-indol-2-yl)-3,4-dihydro-5-oxa-1,2a-diazaacenaphthylen-7-yl)methanone]
Day 0 to 14, prophylactic
  Lung weight: reduction in lung weight comparable to standard of care Nintedanib
lung, RT-qPCR normalized to GAPDH
  Fibronectin mRNA: stronger reduction of fibronectin mRNA as compared to Nintedanib
